Source: patent US11571407B2, “Bicalutamide analogs or (S)-bicalutamide as exocytosis activating compounds for use in the treatment of a lysosomal storage disorder or glycogenosis” (BCN PEPTIDES, S.A., priority 2013, dated 2023)
Marks after values point to notes of the source that are not given here.

Key:
[1] = test system: fibroblasts from patients affected by different lysosomal storage diseases; test: Cell viability, MTT assay; format: cell-based, human; design: key to Decrease of Cell Viability (%): N.S.: non significant decrease; details: for Decrease of Cell Viability (%): 72 h
Protocol: Fibroblasts from thirteen patients affected by seven different lysosomal storage diseases (Fabry, Gaucher, Hurler, Niemann-Pick type A/B, Sanfilippo A, Sanfilippo B and Tay-Sachs) were cultured in DMEM (Dulbecco's modified Eagles medium) with 10% fetal bovine serum and in the presence of antibiotics (penicillin and streptomycin), at 37° C. with 5% CO2. All reagents were purchased from PAA Laboratories (Velizy-Villacoublay, France). The fibroblasts of the patients were selected on the basis of availability of fibroblasts and measurable residual activity. The use of human samples was approved by the Ethical Committee of Hospital Clinic, Barcelona
Fibroblasts of early passage (between 5 and 9 passages) were plated in 6- or 24-well plates depending on the test and were treated for 72 hours with increasing concentrations (10 nmol/L, 100 nmol/L, 1 μmol/L, 10 μmol/L, 50 μmol/L and 100 μmol/L) of bicalutamide (Sigma-Aldrich, St. Louis, USA) and (R)- and (S)-bicalutamide (Toronto Research Chemicals Inc., Toronto (Ontario), Canada). Cell viability was evaluated in each cell line for each concentration using the 3-[4,5-dimethylthiazol-2-yl]-2,5-diphenyl tetrazolium bromide (MTT) assay (Sigma-aldrich, St. Louis, USA) described by Sumantran V. N. Cellular chemosensitivity assays: an overview. Methods Mol. Biol. (2011), 731, 219-236.
Fibroblasts from thirteen patients with different lysosomal storage diseases (four patients affected by Sanfilippo B disease patients with different genotypes, three Sanfilippo A disease patients with different genotypes, two Tay-Sachs disease patients with the same genotype, one Gaucher disease patient, one Niemann-PickA/B disease patient, one Hurler disease patient and one Fabry disease patient) were independently treated with different concentrations of (R)- and (S)-bicalutamide (50 and 100 μM). Cell viability was evaluated for each treatment in each cell line using the MTT assay.

[2] = cited from earlier work
[3] = Table 3 patient 1, Sanfilippo B fibroblasts, 50 μM
[4] = Table 3 patient 1, Sanfilippo B fibroblasts, 100 μM
[5] = Table 3 patient 2, Sanfilippo B fibroblasts, 50 μM
[6] = Table 3 patient 2, Sanfilippo B fibroblasts, 100 μM
[7] = Table 3 patient 3, Sanfilippo B fibroblasts, 50 μM
[8] = Table 3 patient 3, Sanfilippo B fibroblasts, 100 μM
[9] = Table 3 patient 4, Sanfilippo B fibroblasts, 50 μM
[10] = Table 3 patient 4, Sanfilippo B fibroblasts, 100 μM
[11] = Table 3 patient 5, Sanfilippo A fibroblasts, 50 μM
[12] = Table 3 patient 5, Sanfilippo A fibroblasts, 100 μM
[13] = Table 3 patient 6, Sanfilippo A fibroblasts, 50 μM
[14] = Table 3 patient 6, Sanfilippo A fibroblasts, 100 μM
[15] = Table 3 patient 7, Sanfilippo A fibroblasts, 50 μM
[16] = Table 3 patient 7, Sanfilippo A fibroblasts, 100 μM
[17] = Table 3 patient 8, Tay-Sachs fibroblasts, 50 μM
[18] = Table 3 patient 8, Tay-Sachs fibroblasts, 100 μM
[19] = Table 3 patient 9, Tay-Sachs fibroblasts, 50 μM
[20] = Table 3 patient 9, Tay-Sachs fibroblasts, 100 μM
[21] = Table 3 patient 10, Gaucher fibroblasts, 50 μM
[22] = Table 3 patient 10, Gaucher fibroblasts, 100 μM
[23] = Table 3 patient 11, Niemann-Pick AB fibroblasts, 50 μM
[24] = Table 3 patient 11, Niemann-Pick AB fibroblasts, 100 μM
[25] = Table 3 patient 12, Hurler fibroblasts, 50 μM
[26] = Table 3 patient 12, Hurler fibroblasts, 100 μM
[27] = Table 3 patient 13, Fabry fibroblasts, 50 μM
[28] = Table 3 patient 13, Fabry fibroblasts, 100 μM

## C[C@@](O)(CS(=O)(=O)c1ccc(F)cc1)C(=O)Nc1ccc(C#N)c(C(F)(F)F)c1 [(S)-BICALUTAMIDE (1), (2S)-N-[4-cyano-3-(trifluoromethyl)phenyl]-3-[(4-fluorophenyl)sulfonyl]-2-hydroxy-2-methylpropanamide]
[1]; [3]
  Decrease of Cell Viability (%): 0%
[1]; [4]
  Decrease of Cell Viability (%): 0%
[1]; [5]
  Decrease of Cell Viability (%): 0%
[1]; [6]
  Decrease of Cell Viability (%): 0%
[1]; [7]
  Decrease of Cell Viability (%): 0%
[1]; [8]
  Decrease of Cell Viability (%): 0%
[1]; [9]
  Decrease of Cell Viability (%): 0%
[1]; [10]
  Decrease of Cell Viability (%): N.S.
[1]; [11]
  Decrease of Cell Viability (%): 0%
[1]; [12]
  Decrease of Cell Viability (%): 0%
[1]; [13]
  Decrease of Cell Viability (%): 0%
[1]; [14]
  Decrease of Cell Viability (%): 0%
[1]; [15]
  Decrease of Cell Viability (%): 0%
[1]; [16]
  Decrease of Cell Viability (%): 0%
[1]; [17]
  Decrease of Cell Viability (%): 0%
[1]; [18]
  Decrease of Cell Viability (%): 0%
[1]; [19]
  Decrease of Cell Viability (%): 0%
[1]; [20]
  Decrease of Cell Viability (%): N.S.
[1]; [21]
  Decrease of Cell Viability (%): N.S.
[1]; [22]
  Decrease of Cell Viability (%): N.S.
[1]; [23]
  Decrease of Cell Viability (%): N.S.
[1]; [24]
  Decrease of Cell Viability (%): N.S.
[1]; [25]
  Decrease of Cell Viability (%): 0%
[1]; [26]
  Decrease of Cell Viability (%): 0%
[1]; [27]
  Decrease of Cell Viability (%): 0%
[1]; [28]
  Decrease of Cell Viability (%): 0%
[1]; thirteen fibroblast cultures, 50 and 100 μM
  decrease of cell viability (in words): did not show any significant decrease of cell viability

## C[C@@](O)(CS(=O)(=O)c1ccc(F)cc1)C(=O)Nc1ccc(C#N)c(C(F)(F)F)c1 (single isomer, unassigned) [(R)-BICALUTAMIDE (2)]
[2]; in vivo
  half life in plasma: 1 week
[2]; steady state, (R)- versus (S)-bicalutamide
  concentrations in plasma at the steady state relative to (S)-bicalutamide: 100 times
[1]; [3]
  Decrease of Cell Viability (%): 20* %
[1]; [4]
  Decrease of Cell Viability (%): 37* %
[1]; [5]
  Decrease of Cell Viability (%): 10* %
[1]; [6]
  Decrease of Cell Viability (%): 26* %
[1]; [7]
  Decrease of Cell Viability (%): 40* %
[1]; [8]
  Decrease of Cell Viability (%): 52* %
[1]; [9]
  Decrease of Cell Viability (%): 0%
[1]; [10]
  Decrease of Cell Viability (%): 25* %
[1]; [11]
  Decrease of Cell Viability (%): N.S.
[1]; [12]
  Decrease of Cell Viability (%): N.S.
[1]; [13]
  Decrease of Cell Viability (%): 0%
[1]; [14]
  Decrease of Cell Viability (%): 0%
[1]; [15]
  Decrease of Cell Viability (%): 0%
[1]; [16]
  Decrease of Cell Viability (%): 0%
[1]; [17]
  Decrease of Cell Viability (%): 0%
[1]; [18]
  Decrease of Cell Viability (%): 0%
[1]; [19]
  Decrease of Cell Viability (%): 0%
[1]; [20]
  Decrease of Cell Viability (%): N.S.
[1]; [21]
  Decrease of Cell Viability (%): 0%
[1]; [22]
  Decrease of Cell Viability (%): 24* %
[1]; [23]
  Decrease of Cell Viability (%): 0%
[1]; [24]
  Decrease of Cell Viability (%): 0%
[1]; [25]
  Decrease of Cell Viability (%): 0%
[1]; [26]
  Decrease of Cell Viability (%): 0%
[1]; [27]
  Decrease of Cell Viability (%): 0%
[1]; [28]
  Decrease of Cell Viability (%): 0%
